Experimental data published in BindingDB's records for doi:10.1016/j.chembiol.2010.01.008 (University of Washington, 2010).
Values joined by “and” are separate entries in the source; they are usually repeats but may differ in a detail not shown here. Identical values can stand only once.

Assays:
Details in all cases: pH 7.5
[1] = molecular target: Proto-oncogene tyrosine-protein kinase Src (Gallus gallus, UniProt P00523); test: In Vitro Activity Assay
From the text: (§1) In vitro activity assay using various kinases.

[2] = molecular target: Tyrosine-protein kinase HCK (Homo sapiens, UniProt P08631); test: In Vitro Activity Assay
From the text: as §1

[3] = molecular target: Tyrosine-protein kinase CSK (Homo sapiens, UniProt P41240); test: In Vitro Activity Assay
From the text: as §1

[4] = molecular target: T1, Tyrosine-protein kinase ABL1 [1-999,E255V] (Homo sapiens, UniProt P00519, E255V); test: In Vitro Activity Assay
T1 construct: 1-999
From the text: as §1

[5] = molecular target: T2, Mitogen-activated protein kinase kinase kinase 5 (Homo sapiens, UniProt Q99683); test: In Vitro Activity Assay
T2 sequence (Q99683 whole entry): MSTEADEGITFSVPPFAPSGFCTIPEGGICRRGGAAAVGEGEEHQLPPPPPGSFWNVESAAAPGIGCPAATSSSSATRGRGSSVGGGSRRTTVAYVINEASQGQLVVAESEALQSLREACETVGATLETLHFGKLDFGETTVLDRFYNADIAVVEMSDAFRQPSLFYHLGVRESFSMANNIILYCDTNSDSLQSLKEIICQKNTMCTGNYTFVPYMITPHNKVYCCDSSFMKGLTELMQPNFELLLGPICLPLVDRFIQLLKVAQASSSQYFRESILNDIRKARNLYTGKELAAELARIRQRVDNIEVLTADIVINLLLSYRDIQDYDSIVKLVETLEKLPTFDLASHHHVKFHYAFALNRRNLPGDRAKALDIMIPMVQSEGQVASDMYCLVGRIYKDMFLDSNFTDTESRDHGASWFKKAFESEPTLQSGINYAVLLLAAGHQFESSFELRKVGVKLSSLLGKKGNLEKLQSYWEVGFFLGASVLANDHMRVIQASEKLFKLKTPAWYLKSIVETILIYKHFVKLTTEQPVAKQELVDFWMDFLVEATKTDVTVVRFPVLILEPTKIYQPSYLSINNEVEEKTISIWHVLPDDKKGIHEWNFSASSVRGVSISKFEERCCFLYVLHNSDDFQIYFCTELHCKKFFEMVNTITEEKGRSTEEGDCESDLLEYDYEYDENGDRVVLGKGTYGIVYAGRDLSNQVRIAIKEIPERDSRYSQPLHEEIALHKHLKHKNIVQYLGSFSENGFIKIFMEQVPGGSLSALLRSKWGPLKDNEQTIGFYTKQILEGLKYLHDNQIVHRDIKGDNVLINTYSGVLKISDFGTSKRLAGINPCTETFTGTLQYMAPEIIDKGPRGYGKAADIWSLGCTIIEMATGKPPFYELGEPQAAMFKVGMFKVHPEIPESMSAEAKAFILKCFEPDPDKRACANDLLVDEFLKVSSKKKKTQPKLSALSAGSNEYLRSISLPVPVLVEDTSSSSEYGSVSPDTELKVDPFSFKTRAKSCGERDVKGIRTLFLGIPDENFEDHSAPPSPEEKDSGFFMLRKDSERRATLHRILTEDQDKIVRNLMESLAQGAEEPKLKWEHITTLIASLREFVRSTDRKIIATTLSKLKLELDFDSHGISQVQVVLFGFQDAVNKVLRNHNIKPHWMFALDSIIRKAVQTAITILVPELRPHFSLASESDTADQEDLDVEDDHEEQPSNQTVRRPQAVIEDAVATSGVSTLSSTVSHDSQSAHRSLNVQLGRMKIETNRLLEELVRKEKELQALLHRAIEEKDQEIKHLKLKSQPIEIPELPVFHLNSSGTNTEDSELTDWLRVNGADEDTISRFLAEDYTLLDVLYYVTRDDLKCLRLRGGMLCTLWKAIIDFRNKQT
From the text: as §1

[6] = molecular target: Tyrosine-protein kinase Lck (Homo sapiens, UniProt P06239); test: In Vitro Activity Assay
From the text: as §1

[7] = molecular target: Mitogen-activated protein kinase 14 (Homo sapiens, UniProt Q16539); test: In Vitro Activity Assay
From the text: as §1

[8] = molecular target: Tyrosine-protein kinase ABL1 (Homo sapiens, UniProt P00519); test: In Vitro Activity Assay
From the text: as §1

[9] = molecular target: Serine/threonine-protein kinase PAK 4 (Homo sapiens, UniProt O96013); test: In Vitro Activity Assay
From the text: as §1

[10] = molecular target: T3, Tyrosine-protein kinase ABL1 [1-999,Y253H] (Homo sapiens, UniProt P00519, Y253H); test: In Vitro Activity Assay
T3 construct: 1-999
From the text: as §1

[11] = molecular target: T4, Ephrin type-A receptor 3 [1-975] (Homo sapiens, UniProt P29320); test: In Vitro Activity Assay
T4 construct: 1-975
T4 sequence (P29320 whole entry): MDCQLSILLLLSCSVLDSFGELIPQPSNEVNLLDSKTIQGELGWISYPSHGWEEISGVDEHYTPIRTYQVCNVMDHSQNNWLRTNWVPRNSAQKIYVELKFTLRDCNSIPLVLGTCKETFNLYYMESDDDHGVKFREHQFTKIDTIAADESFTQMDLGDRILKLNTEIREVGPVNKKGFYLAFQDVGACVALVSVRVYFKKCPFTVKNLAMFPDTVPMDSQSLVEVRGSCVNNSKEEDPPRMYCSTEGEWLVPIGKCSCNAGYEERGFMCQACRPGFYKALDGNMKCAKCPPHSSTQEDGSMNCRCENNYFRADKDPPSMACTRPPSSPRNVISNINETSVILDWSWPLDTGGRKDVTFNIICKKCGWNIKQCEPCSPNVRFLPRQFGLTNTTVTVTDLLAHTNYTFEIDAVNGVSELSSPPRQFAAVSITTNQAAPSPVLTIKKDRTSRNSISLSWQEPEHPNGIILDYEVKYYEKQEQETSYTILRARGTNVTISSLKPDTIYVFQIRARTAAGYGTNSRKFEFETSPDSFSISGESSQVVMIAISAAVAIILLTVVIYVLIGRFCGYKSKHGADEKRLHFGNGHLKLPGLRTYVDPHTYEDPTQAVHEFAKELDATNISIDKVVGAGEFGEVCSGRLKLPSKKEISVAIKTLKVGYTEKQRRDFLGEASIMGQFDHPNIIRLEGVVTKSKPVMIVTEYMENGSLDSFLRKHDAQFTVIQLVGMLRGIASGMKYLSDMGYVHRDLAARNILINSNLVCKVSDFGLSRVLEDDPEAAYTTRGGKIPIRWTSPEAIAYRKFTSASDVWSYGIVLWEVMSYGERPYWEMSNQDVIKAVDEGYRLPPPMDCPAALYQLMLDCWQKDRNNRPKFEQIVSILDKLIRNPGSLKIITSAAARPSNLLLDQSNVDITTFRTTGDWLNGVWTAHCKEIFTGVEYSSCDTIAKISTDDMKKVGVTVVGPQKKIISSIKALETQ
From the text: as §1

[12] = molecular target: Dual specificity protein kinase CLK1 (Homo sapiens, UniProt P49759); test: In Vitro Activity Assay
From the text: as §1

[13] = molecular target: Serine/threonine-protein kinase PAK 5 (Homo sapiens) (UniProt Q9P286); test: In vitro activity assay using various kinases.
[14] = molecular target: cAMP-dependent protein kinase catalytic subunit alpha (Homo sapiens, UniProt P17612); test: In Vitro Activity Assay
From the text: as §1

[15] = molecular target: Mitogen-activated protein kinase 1 (Homo sapiens, UniProt P28482); test: In Vitro Activity Assay
From the text: as §1

[16] = molecular target: T5, Interleukin-1 receptor-associated kinase 4 (Homo sapiens, UniProt Q9NWZ3); test: In Vitro Activity Assay
T5 sequence (Q9NWZ3 whole entry): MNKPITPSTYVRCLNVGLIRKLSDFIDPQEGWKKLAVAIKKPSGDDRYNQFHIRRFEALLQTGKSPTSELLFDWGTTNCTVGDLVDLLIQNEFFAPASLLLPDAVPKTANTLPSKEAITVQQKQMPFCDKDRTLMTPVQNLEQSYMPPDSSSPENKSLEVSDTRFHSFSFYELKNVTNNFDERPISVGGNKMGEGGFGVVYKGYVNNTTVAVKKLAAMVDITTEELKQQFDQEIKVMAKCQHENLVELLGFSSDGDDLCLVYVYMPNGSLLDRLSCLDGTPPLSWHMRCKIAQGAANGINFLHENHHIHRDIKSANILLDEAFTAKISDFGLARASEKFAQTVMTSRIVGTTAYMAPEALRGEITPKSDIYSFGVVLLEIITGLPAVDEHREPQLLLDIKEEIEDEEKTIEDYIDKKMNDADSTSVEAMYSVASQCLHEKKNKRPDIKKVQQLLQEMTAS
From the text: as §1

Sequence of Tyrosine-protein kinase ABL1 (P00519 whole entry): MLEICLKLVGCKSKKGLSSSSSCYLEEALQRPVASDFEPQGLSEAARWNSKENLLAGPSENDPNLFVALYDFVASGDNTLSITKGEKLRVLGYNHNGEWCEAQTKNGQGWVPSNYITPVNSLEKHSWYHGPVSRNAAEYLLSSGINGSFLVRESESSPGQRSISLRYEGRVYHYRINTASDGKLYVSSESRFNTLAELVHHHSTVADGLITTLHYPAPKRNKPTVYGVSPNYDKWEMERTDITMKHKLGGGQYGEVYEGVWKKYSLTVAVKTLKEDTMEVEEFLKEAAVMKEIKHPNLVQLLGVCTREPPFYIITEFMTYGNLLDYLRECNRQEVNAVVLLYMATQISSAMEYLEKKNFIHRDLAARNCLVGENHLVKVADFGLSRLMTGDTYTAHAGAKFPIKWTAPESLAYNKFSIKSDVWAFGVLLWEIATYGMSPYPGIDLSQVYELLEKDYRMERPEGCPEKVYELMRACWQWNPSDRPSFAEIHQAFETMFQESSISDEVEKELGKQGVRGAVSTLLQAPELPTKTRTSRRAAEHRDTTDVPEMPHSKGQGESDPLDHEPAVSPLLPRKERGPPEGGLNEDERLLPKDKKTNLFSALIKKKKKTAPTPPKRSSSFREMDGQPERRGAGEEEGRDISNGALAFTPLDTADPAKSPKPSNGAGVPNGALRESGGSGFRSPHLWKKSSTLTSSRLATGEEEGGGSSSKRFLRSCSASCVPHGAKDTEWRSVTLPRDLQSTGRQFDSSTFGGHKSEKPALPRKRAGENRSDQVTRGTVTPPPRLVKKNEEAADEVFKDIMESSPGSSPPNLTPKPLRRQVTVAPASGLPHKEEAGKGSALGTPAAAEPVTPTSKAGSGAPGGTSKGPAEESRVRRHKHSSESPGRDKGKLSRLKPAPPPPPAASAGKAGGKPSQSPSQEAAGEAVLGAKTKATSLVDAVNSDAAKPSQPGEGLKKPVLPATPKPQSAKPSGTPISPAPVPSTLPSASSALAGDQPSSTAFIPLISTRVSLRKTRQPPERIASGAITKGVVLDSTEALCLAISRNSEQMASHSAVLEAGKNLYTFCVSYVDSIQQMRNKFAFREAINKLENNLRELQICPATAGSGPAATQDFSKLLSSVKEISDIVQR
Sequence of Tyrosine-protein kinase HCK (P08631 whole entry): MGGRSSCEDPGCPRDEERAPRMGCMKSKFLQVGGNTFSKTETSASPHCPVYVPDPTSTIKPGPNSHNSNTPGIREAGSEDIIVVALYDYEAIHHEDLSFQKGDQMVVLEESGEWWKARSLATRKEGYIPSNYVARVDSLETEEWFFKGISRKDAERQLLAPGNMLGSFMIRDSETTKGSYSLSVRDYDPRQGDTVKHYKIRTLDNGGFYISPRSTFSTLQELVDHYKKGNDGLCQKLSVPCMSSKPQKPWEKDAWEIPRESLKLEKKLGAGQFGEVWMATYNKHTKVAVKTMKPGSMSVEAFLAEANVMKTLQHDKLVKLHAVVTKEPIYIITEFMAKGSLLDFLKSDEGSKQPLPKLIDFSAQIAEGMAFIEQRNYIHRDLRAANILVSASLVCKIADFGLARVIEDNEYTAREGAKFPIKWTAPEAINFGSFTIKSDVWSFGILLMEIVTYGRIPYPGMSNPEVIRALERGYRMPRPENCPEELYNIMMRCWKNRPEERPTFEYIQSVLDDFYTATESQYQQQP
Sequence of Serine/threonine-protein kinase PAK 4 (O96013 whole entry): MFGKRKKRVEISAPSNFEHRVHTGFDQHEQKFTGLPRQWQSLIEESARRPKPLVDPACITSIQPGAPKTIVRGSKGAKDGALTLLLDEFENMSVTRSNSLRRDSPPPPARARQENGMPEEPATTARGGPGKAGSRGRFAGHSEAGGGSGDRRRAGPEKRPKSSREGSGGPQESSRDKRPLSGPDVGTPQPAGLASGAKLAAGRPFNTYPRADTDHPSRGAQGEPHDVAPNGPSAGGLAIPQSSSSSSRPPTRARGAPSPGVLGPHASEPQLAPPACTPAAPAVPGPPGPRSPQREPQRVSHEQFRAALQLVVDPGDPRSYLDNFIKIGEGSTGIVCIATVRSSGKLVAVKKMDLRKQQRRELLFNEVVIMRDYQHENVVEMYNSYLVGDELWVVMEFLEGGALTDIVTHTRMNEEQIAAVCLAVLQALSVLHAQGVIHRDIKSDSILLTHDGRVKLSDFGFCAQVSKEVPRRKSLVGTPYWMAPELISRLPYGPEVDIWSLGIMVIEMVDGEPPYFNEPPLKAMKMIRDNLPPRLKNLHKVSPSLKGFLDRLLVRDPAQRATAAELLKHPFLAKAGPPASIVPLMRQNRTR
Sequence of Dual specificity protein kinase CLK1 (P49759 whole entry): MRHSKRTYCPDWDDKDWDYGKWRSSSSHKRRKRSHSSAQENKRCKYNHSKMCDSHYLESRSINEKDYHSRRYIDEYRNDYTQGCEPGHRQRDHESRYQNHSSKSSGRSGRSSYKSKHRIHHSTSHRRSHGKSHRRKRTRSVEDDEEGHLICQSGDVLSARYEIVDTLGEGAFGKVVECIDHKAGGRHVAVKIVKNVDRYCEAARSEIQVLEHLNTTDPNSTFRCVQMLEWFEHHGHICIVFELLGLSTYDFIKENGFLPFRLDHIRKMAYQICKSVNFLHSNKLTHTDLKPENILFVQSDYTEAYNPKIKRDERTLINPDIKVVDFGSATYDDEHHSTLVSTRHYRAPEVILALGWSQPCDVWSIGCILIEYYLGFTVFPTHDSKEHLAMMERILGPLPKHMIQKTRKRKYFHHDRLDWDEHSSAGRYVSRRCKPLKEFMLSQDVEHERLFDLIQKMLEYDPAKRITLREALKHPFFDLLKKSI
Sequence of Mitogen-activated protein kinase 14 (Q16539 whole entry): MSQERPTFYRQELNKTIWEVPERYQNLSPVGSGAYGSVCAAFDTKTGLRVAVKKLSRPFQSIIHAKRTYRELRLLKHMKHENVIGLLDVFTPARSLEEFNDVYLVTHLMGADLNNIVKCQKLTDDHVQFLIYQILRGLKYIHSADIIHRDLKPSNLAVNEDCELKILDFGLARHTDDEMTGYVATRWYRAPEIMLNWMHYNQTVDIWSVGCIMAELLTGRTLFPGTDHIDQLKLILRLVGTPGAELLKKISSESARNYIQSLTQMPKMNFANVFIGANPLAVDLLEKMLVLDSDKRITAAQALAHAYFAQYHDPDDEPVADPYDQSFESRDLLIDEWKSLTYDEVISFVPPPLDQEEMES
Sequence of Tyrosine-protein kinase Lck (P06239 whole entry): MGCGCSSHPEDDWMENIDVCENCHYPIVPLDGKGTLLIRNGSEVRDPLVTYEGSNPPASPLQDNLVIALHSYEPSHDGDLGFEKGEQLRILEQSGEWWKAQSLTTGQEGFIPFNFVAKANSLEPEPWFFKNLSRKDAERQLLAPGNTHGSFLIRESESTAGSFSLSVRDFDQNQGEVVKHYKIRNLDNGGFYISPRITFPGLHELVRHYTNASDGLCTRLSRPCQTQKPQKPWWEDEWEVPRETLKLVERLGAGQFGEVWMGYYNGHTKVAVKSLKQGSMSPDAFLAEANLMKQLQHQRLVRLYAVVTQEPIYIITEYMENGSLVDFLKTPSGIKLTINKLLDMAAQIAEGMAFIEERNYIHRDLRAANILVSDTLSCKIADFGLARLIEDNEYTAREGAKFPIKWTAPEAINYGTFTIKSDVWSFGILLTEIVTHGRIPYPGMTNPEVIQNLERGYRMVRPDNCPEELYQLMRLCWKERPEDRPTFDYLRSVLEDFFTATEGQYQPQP
Sequence of Serine/threonine-protein kinase PAK 5 (Homo sapiens) (Q9P286 whole entry, looked up): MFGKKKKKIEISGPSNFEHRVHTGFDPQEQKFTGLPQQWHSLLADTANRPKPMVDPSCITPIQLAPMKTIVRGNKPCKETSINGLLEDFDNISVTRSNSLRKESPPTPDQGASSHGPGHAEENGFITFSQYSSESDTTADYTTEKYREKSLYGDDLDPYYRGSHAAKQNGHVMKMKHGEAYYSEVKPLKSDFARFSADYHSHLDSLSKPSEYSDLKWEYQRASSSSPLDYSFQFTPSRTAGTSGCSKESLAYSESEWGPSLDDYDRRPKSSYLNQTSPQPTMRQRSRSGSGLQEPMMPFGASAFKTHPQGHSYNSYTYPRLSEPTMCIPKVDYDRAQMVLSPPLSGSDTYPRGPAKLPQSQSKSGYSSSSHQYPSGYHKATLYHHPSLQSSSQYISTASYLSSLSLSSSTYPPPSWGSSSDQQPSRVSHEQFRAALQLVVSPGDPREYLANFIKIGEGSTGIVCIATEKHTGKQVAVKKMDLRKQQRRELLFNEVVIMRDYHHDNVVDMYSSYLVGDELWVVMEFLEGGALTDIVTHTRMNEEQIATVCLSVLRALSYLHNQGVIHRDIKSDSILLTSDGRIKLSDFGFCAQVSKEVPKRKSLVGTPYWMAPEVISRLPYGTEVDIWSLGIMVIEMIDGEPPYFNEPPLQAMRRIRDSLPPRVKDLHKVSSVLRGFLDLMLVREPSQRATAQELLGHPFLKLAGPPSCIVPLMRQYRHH
Sequence of Mitogen-activated protein kinase 1 (P28482 whole entry): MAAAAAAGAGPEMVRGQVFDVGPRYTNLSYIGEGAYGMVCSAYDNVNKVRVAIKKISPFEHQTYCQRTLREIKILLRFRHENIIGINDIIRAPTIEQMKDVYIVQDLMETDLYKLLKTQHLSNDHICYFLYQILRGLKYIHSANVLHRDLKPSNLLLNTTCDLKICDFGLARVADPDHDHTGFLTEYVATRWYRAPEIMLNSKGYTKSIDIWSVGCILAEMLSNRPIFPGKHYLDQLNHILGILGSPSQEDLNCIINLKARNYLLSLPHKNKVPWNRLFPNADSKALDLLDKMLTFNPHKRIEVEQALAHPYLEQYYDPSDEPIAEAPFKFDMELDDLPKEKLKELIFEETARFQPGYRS

IC50 [1] [nM] | IC50 [7] [nM] | IC50 [2] [nM] | IC50 [14] [nM] | IC50 [3] [nM] | IC50 [5] [nM] | IC50 [6] [nM] | IC50 [8] [nM] | IC50 [15] [nM] | IC50 [9] [nM] | IC50 [16] [nM] | IC50 [12] [nM] | IC50 [13] [nM] | SMILES | also measured
25.4 | 25.5 |  |  |  |  |  |  |  |  |  |  |  | Cc1ccc(NC(=O)c2cccc(C(F)(F)F)c2)cc1Nc1ncccc1-c1ncnc(Nc2ccc(OCCNC(=O)CCCCNC(=O)CCC3=[N+]4B(F)n5c(C)cc(C)c5C=C4C=C3)cc2)n1 [BODIPY-labeled probe, 4a] | Kd [1]: 13 nM and 11 nM; Kd [2]: 8.7 nM; Kd [3]: 17 nM; Kd [4]: 45 nM; Kd [5]: > 1000 nM; Kd [6]: 20 nM; Kd [7]: 35 nM; Kd [8]: 9.9 nM; Kd [9]: > 1000 nM; Kd [10]: 9.4 nM; Kd [11]: 27 nM; Kd [12]: > 1000 nM; Kd [13]: > 1000 nM
3.3 | < 13 | 9.6 | > 10000 | 16.3 | > 10000 | < 10 | 6.6 | > 10000 | > 10000 | > 10000 | > 10000 | > 10000 | Cc1ccc(NC(=O)c2cccc(C(F)(F)F)c2)cc1Nc1ncccc1-c1ncnc(Nc2ccc(OCCNC(=O)COCCOCCOCCOCCN)cc2)n1 [Amine compound, 12a] | 
5.7 | < 13 | 6.3 | > 10000 | 140 | > 10000 | < 10 | 6.6 | > 10000 | > 10000 | > 10000 | > 10000 | > 10000 | Cc1ccc(NC(=O)c2cccc(C(F)(F)F)c2)cc1Nc1ncccc1-c1cc(Nc2ccc(OCCNC(=O)COCCOCCOCCOCCN)cc2)ncn1 [Amine compound, 13a] | 
